# Assay results: patent publication US11759462B2, “Spirocyclic compounds as tryptophan hydroxylase inhibitors” (priority 2013, dated 2023)
# Target: T1, Recombinant human TPH1 (MBP tagged) (Homo sapiens, UniProt P17752)
# T1 construct: cloning full length human TPH1 cDNA in to a bacterial pMAL-c5E expression vector; made in house; host or cells: E. coli BL21 (DE3)
# T1 sequence (P17752 1-444): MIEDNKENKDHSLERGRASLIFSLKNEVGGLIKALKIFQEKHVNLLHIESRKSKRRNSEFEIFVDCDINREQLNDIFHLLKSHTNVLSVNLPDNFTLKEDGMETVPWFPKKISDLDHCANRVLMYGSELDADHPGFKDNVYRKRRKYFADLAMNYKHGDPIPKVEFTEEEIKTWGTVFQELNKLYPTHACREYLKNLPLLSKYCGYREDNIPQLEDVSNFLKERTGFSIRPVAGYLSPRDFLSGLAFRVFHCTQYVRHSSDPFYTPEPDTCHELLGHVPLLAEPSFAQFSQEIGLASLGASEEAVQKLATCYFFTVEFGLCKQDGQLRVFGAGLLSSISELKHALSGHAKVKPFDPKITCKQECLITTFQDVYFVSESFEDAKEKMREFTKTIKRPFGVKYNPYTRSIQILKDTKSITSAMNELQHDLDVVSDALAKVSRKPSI
# Assay: TPH1 in vitro inhibition assay (kinetic fluorescence)
# Assay type: biochemical
# Settings: read-out: TPH1 Range (TPH1 inhibition IC50)
# Procedure, shortened: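 Final mix: 15 nM MBP-TPH1, 30 μM Trp, 36 μM 6-methyltetrahydropterin, 25 μM ferrous ammonium sulfate, 50 mM MES pH 7.1, 1% DMSO, room temperature.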
row,IC50 [nM],Structure (SMILES)
1,< 50,"Cc1ccn(-c2ccc(-c3ccc(CCC(=O)O)cc3)cc2[C@@H](Oc2cc(N3CCC4(CC3)CN[C@H](C(=O)O)C4)nc(N)n2)C(F)(F)F)n1 [Example 19k, (S)-8-(2-amino-6-((R)-1-(4′-(2-carboxyethyl)-4-(3-methyl-1H-pyrazol-1-yl)-[1,1′-biphenyl]-3-yl)-2,2,2-trifluoroethoxy)pyrimidin-4-yl)-2,8-diazaspiro[4.5] decane-3-carboxylic acid]"
2,< 50,"Cc1ccn(-c2ccc(-c3ccc(CO)c(C)c3)cc2[C@@H](Oc2cc(N3CCC4(CC3)CN[C@H](C(=O)O)C4)nc(N)n2)C(F)(F)F)n1 [Example 19l, (S)-8-(2-amino-6-((R)-2,2,2-trifluoro-1-(4′-(hydroxymethyl)-3′-methyl-4-(3-methyl-1H-pyrazol-1-yl)-[1,1′-biphenyl]-3-yl)ethoxy)pyrimidin-4-yl)-2,8-diazaspiro[4.5]decane-3-carboxylic acid]"
3,< 50,"Cc1ccn(-c2ccc(-c3ccc(C)c(CO)c3)cc2[C@@H](Oc2cc(N3CCC4(CC3)CN[C@H](C(=O)O)C4)nc(N)n2)C(F)(F)F)n1 [Example 19m, (S)-8-(2-amino-6-((R)-2,2,2-trifluoro-1-(3′-(hydroxymethyl)-4′-methyl-4-(3-methyl-1H-pyrazol-1-yl)-[1,1′-biphenyl]-3-yl)ethoxy)pyrimidin-4-yl)-2,8-diazaspiro[4.5]decane-3-carboxylic acid]"
4,< 50,"Cc1ccn(-c2ccc(-c3ccccc3)cc2[C@@H](Oc2cc(N3CCC4(CC3)CN[C@H](C(=O)O)C4)nc(N)n2)C(F)(F)F)n1 [Example 19n, (S)-8-(2-amino-6-((R)-2,2,2-trifluoro-1-(4-(3-methyl-1H-pyrazol-1-yl)-[1,1′-biphenyl]-3-yl)ethoxy)pyrimidin-4-yl)-2,8-diazaspiro[4.5]decane-3-carboxylic acid]"
5,< 50,"Cc1ccn(-c2ccc(-c3ccc(F)c(F)c3)cc2[C@@H](Oc2cc(N3CCC4(CC3)CN[C@H](C(=O)O)C4)nc(N)n2)C(F)(F)F)n1 [Example 19o, (S)-8-(2-amino-6-((R)-1-(3′,4′-difluoro-4-(3-methyl-1H-pyrazol-1-yl)-[1,1′-biphenyl]-3-yl)-2,2,2-trifluoroethoxy)pyrimidin-4-yl)-2,8-diazaspiro[4.5] decane-3-carboxylic acid]"
6,< 50,"Cc1ccn(-c2ccc(-c3ccc(Cl)c(Cl)c3)cc2[C@@H](Oc2cc(N3CCC4(CC3)CN[C@H](C(=O)O)C4)nc(N)n2)C(F)(F)F)n1 [Example 19p, (S)-8-(2-amino-6-((R)-1-(3′,4′-dichloro-4-(3-methyl-1H-pyrazol-1-yl)-[1,1′-biphenyl]-3-yl)-2,2,2-trifluoroethoxy)pyrimidin-4-yl)-2,8-diazaspiro[4.5] decane-3-carboxylic acid]"
7,< 50,"Cc1ccn(-c2ccc(-c3ccc(Cl)cc3)cc2[C@@H](Oc2cc(N3CCC4(CC3)CN[C@H](C(=O)O)C4)nc(N)n2)C(F)(F)F)n1 [Example 19q, (S)-8-(2-amino-6-((R)-1-(4′-chloro-4-(3-methyl-1H-pyrazol-1-yl)-[1,1′-biphenyl]-3-yl)-2,2,2-trifluoroethoxy)pyrimidin-4-yl)-2,8-diazaspiro[4.5] decane-3-carboxylic acid]"
8,< 50,"Cc1ccn(-c2ccc(-c3ccc(CO)cc3)cc2[C@@H](Oc2cc(N3CCC4(CC3)CN[C@H](C(=O)O)C4)nc(N)n2)C(F)(F)F)n1 [Example 19r, (S)-8-(2-amino-6-((R)-2,2,2-trifluoro-1-(4′-(hydroxymethyl)-4-(3-methyl-1H-pyrazol-1-yl)-[1,1′-biphenyl]-3-yl)ethoxy)pyrimidin-4-yl)-2,8-diazaspiro[4.5]decane-3-carboxylic acid]"
9,< 50,"CCOC(=O)c1ccccc1-c1ccc(-n2ccc(C)n2)c([C@@H](Oc2cc(N3CCC4(CC3)CN[C@H](C(=O)O)C4)nc(N)n2)C(F)(F)F)c1 [Example 20, (S)-8-(2-amino-6-((R)-1-(2′-(ethoxycarbonyl)-4-(3-methyl-1H-pyrazol-1-yl)-[1,1′-biphenyl]-3-yl)-2,2,2-trifluoroethoxy)pyrimidin-4-yl)-2,8-diazaspiro[4.5]decane-3-carboxylic acid]"
10,< 50,"CCOC(=O)c1ccc(-c2ccc(-n3ccc(C)n3)c([C@@H](Oc3cc(N4CCC5(CC4)CN[C@H](C(=O)O)C5)nc(N)n3)C(F)(F)F)c2)cc1 [Example 21, (S)-8-(2-amino-6-((R)-1-(4′-(ethoxycarbonyl)-4-(3-methyl-1H-pyrazol-1-yl)-[1,1′-biphenyl]-3-yl)-2,2,2-trifluoroethoxy)pyrimidin-4-yl)-2,8-diazaspiro[4.5]decane-3-carboxylic acid]"
11,< 50,"CCc1ccc(-n2ccc(C)n2)c([C@@H](Oc2cc(N3CCC4(CC3)CN[C@H](C(=O)O)C4)nc(N)n2)C(F)(F)F)c1 [Example 22a, (S)-8-(2-amino-6-((R)-1-(5-ethyl-2-(3-methyl-H-pyrazol-1-yl)phenyl)-2,2,2-trifluoroethoxy)pyrimidin-4-yl)-2,8-diazaspiro[4.5]decane-3-carboxylic acid]"
12,< 50,CCCc1ccc(-n2ccc(C)n2)c([C@@H](Oc2cc(N3CCC4(CC3)CN[C@H](C(=O)O)C4)nc(N)n2)C(F)(F)F)c1 [Example 22b]
13,< 50,"CCOC(=O)c1ccc(-n2ccc(C)n2)c([C@@H](Oc2cc(N3CCC4(CC3)CN[C@H](C(=O)O)C4)nc(N)n2)C(F)(F)F)c1 [Example 23, (S)-8-(2-Amino-6-((R)-1-(5-(ethoxycarbonyl)-2-(3-methyl-1H-pyrazol-1-yl)phenyl)-2,2,2-trifluoroethoxy)pyrimidin-4-yl)-2,8-diazaspiro[4.5]decane-3-carboxylic acid]"
14,50 to 300,"Cc1ccn(-c2ccc(C(=O)O)cc2[C@@H](Oc2cc(N3CCC4(CC3)CN[C@H](C(=O)O)C4)nc(N)n2)C(F)(F)F)n1 [Example 24, (S)-8-(2-Amino-6-((R)-1-(5-carboxy-2-(3-methyl-H-pyrazol-1-yl)phenyl)-2,2,2-trifluoroethoxy)pyrimidin-4-yl)-2,8-diazaspiro[4.5]decane-3-carboxylic acid]"
15,< 50,"Cc1ccn(-c2cc(CO)ccc2[C@@H](Oc2cc(N3CCC4(CC3)CN[C@H](C(=O)O)C4)nc(N)n2)C(F)(F)F)n1 [Example 25, (S)-8-(2-Amino-6-((R)-2,2,2-trifluoro-1-(4-(hydroxymethyl)-2-(3-methyl-H-pyrazol-1-yl)phenyl)ethoxy)pyrimidin-4-yl)-2,8-diazaspiro[4.5]decane-3-carboxylic acid]"
16,3000 to 10000,"Cc1ccn(-c2cc(CN(C)C)ccc2[C@@H](Oc2cc(N3CCC4(CC3)CN[C@H](C(=O)O)C4)nc(N)n2)C(F)(F)F)n1 [Example 26, (S)-8-(2-amino-6-((R)-1-(4-((dimethylamino)methyl)-2-(3-methyl-H-pyrazol-1-yl)phenyl)-2,2,2-trifluoroethoxy)pyrimidin-4-yl)-2,8-diazaspiro[4.5]decane-3-carboxylic acid]"
17,50 to 300,"Cc1ccn(-c2cc(Br)ccc2[C@@H](Oc2cc(N3CCC4(CC3)CN[C@H](C(=O)O)C4)nc(C)n2)C(F)(F)F)n1 [Example 27, (S)-8-(6-((R)-1-(4-Bromo-2-(3-methyl-1H-pyrazol-1-yl)phenyl)-2,2,2-trifluoroethoxy)-2-methylpyrimidin-4-yl)-2,8-diazaspiro[4.5]decane-3-carboxylic acid]"
